Experimental data published in US20140214336A1, “SYSTEMS AND METHODS FOR NETWORK-BASED BIOLOGICAL ACTIVITY ASSESSMENT” (PHILIP MORRIS PRODUCTS S.A., priority 2011, published 2014).

Key:
[1] = test system: Normal human bronchial epithelial (NHBE) cells; assay: Cell cycle arrest and S-phase re-entry in NHBE cell culture (fluorescent S-phase labeling / FACS); assay type: cell-based
Experimental: (§1) The systems and methods described herein have been tested using a well-understood cell culture experiment. […] The treated cells were then allowed to re-enter the cell cycle by removal of the CDKI from the media and washing. Re-entry of the cell cycle was experimentally confirmed by labeling the cells fluorescently in S-phase at 2, 4, 6 and 8 hours after the CDKI was removed and the cells were washed. The gene transcription profiles of cells that were sampled 2, 4, 6, and 8 hours after the removal of the CDKI, were obtained. Profiles of cells that were continuously exposed to CDKI in media were also obtained. To identify biological processes and mechanisms that were differentially activated when CDKI was removed, network perturbation amplitude scores were calculated using gene transcription profiles of the washed cells obtained at various time point. For the computation of a NPA score for the perturbation associated with the removal of CDKI, a cell cycle subnetwork that comprises 127 nodes and 240 edges, was used. It is a subnetwork of the cell proliferation network model published in […] et al. (2011, “A computable cellular stress network model for non-diseased pulmonary and cardiovascular tissue” BMC Syst Biol. Oct 19; 5:168, which is incorporated herein by reference in its entirety). […]

[2] = test system: cell cycle subnetwork in NHBE cells; assay: Network perturbation amplitude (NPA) score on the cell cycle subnetwork, from gene transcription profiles of NHBE cells; assay type: cell-based, human; conditions: from 2-hour to 8-hour time point after removal of CDKI, versus cells continuously exposed to CDKI; subnetwork of 127 nodes and 240 edges
Experimental: as §1

CC(=O)c1c(C)c2cnc(Nc3ccc(N4CCNCC4)cn3)nc2n(C2CCCC2)c1=O [PD-0332991]
number of cells in S-phase (FACS analysis, FIG. 17) ([1]; 2, 4, 6 and 8 hours after the CDKI was removed and the cells were washed): increase | effect on cell cycle ([1]; NHBE cells exposed to the CDKI in media): arrests the cells in G1 | NPA scores (FIG. 18) [2]: increase
